Results on seven compounds are retold here after ChEMBL document CHEMBL3817753, “Neurosteroid-like Inhibitors of N-Methyl-d-aspartate Receptor: Substituted 2-Sulfates and 2-Hemisuccinates of Perhydrophenanthrene” (J Med Chem, 2016).

Test [1] deals with Glutamate NMDA receptor; Grin1/Grin2b (Rattus norvegicus, UniProt P35439+Q00960). Description: Inhibition of recombinant rat GluN1a/GluN2B co-expressed in HEK293 cells assessed as suppression of glutamate-induced current by patch-clamp method. It is filed as cell-based. On the technique in general: The patch-clamp technique gives a direct electrical read-out from membranes.
Test [2] in a line: Inhibition of AMPAR in rat hippocampal neurons assessed as suppression of AMPA-induced current by whole-cell patch-clamp method. It is filed as tissue-based. The conditions noted are these: Hippocampus.
Test [3] has as its target Glutamate NMDA receptor; Grin1/Grin2c (Rattus norvegicus, UniProt P35439+Q00961). The test is described as follows: Inhibition of recombinant rat GluN1a/GluN2C co-expressed in HEK293 cells assessed as suppression of glutamate-induced current by patch-clamp method. It is filed as cell-based.
Test [4] can be described thus: Inhibition of NMDAR in rat hippocampal neurons assessed as suppression of NMDA-induced current by whole-cell patch-clamp method. It is filed as tissue-based. The conditions noted are these: Hippocampus.
Test [5] deals with Ionotropic glutamate receptor NMDA 1/2D (Rattus norvegicus, UniProt P35439+Q62645). The test is described as follows: Inhibition of recombinant rat GluN1a/GluN2D co-expressed in HEK293 cells assessed as suppression of glutamate-induced current by patch-clamp method. It is filed as cell-based.
The nature of test [6]: Inhibition of GABAR in rat hippocampal neurons assessed as suppression of GABA-induced current by whole-cell patch-clamp method. It is filed as tissue-based. The conditions noted are these: Hippocampus.
The target of test [7] is Glutamate NMDA receptor; Grin1/Grin2a (Rattus norvegicus, UniProt P35439+Q00959). The test is described as follows: Inhibition of recombinant rat GluN1a/GluN2A co-expressed in HEK293 cells assessed as suppression of glutamate-induced current by patch-clamp method. It is filed as cell-based.
Sequence of Glutamate NMDA receptor; Grin1/Grin2a (Q00959 whole entry, other chains not shown): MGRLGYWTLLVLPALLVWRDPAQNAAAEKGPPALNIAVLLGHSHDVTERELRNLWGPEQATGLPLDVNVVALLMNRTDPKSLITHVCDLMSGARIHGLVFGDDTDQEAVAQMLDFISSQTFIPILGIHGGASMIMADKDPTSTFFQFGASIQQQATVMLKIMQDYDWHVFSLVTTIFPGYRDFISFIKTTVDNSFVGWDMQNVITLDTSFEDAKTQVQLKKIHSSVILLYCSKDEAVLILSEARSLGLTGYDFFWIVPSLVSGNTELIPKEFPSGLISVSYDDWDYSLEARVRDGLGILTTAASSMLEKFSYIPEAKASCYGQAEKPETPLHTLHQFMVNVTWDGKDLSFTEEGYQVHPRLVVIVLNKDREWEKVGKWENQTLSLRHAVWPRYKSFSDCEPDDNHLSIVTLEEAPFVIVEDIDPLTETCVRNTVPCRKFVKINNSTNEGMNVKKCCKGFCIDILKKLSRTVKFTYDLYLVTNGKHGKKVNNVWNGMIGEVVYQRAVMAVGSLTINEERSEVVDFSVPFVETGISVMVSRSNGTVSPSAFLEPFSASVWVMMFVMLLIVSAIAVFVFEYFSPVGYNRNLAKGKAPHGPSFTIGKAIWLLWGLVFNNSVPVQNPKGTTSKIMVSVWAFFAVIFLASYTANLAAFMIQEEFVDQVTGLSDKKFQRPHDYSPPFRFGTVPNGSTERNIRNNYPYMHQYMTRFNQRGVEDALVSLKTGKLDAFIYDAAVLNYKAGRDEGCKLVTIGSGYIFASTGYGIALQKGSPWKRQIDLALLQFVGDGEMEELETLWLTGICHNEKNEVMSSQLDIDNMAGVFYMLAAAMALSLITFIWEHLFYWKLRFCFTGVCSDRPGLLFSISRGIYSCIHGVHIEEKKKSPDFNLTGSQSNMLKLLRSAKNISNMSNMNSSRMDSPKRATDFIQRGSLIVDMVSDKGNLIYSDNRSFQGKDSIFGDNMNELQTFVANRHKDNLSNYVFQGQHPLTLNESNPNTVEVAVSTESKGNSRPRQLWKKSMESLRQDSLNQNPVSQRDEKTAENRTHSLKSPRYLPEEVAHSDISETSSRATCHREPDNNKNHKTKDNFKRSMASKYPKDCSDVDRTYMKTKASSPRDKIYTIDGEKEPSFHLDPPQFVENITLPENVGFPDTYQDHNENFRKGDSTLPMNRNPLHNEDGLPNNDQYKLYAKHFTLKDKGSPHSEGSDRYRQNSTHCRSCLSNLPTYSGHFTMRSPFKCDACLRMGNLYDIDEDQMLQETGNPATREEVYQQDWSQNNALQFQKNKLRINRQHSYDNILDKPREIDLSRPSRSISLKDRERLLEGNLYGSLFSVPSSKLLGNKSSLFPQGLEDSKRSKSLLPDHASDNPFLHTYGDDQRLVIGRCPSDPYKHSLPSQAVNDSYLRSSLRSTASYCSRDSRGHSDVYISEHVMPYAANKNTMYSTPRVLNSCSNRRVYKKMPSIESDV

Sequence of Glutamate NMDA receptor; Grin1/Grin2b (Q00960 whole entry, other chains not shown): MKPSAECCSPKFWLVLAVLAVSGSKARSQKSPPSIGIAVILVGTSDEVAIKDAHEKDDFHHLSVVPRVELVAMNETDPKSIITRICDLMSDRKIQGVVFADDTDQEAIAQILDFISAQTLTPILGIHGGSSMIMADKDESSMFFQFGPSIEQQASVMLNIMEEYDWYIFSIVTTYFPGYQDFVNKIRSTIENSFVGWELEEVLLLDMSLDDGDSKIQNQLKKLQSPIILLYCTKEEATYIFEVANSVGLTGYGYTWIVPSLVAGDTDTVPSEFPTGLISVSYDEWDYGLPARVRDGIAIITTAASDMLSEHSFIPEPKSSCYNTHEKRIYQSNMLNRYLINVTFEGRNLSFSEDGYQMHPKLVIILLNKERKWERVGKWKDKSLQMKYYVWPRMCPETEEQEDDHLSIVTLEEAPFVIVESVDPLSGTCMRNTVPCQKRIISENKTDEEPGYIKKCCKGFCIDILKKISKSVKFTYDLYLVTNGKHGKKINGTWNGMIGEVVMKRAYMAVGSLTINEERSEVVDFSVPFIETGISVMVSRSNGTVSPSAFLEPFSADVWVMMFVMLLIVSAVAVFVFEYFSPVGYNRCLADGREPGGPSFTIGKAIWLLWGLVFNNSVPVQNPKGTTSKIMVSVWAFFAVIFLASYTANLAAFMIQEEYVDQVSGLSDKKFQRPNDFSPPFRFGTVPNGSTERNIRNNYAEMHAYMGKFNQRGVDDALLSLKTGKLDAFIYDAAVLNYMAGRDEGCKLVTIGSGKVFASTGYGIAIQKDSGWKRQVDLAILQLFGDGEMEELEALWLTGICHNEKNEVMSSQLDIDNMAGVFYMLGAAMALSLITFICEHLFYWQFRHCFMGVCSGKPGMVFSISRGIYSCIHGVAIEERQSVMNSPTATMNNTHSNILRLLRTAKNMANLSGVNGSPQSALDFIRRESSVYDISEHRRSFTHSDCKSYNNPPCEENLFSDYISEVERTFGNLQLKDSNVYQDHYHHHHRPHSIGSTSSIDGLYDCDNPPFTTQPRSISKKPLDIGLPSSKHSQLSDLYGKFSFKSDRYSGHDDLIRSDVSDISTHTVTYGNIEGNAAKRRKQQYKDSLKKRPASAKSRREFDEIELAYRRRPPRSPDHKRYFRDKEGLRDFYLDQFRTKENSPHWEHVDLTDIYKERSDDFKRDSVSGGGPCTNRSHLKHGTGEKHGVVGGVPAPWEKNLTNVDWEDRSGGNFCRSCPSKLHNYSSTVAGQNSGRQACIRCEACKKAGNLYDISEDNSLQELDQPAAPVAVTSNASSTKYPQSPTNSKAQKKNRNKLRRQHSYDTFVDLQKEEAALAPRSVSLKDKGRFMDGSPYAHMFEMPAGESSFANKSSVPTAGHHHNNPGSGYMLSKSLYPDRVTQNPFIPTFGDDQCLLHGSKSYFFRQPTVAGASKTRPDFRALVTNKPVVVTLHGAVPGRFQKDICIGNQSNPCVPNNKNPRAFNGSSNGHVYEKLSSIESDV
Sequence of Glutamate NMDA receptor; Grin1/Grin2c (Q00961 whole entry, other chains not shown): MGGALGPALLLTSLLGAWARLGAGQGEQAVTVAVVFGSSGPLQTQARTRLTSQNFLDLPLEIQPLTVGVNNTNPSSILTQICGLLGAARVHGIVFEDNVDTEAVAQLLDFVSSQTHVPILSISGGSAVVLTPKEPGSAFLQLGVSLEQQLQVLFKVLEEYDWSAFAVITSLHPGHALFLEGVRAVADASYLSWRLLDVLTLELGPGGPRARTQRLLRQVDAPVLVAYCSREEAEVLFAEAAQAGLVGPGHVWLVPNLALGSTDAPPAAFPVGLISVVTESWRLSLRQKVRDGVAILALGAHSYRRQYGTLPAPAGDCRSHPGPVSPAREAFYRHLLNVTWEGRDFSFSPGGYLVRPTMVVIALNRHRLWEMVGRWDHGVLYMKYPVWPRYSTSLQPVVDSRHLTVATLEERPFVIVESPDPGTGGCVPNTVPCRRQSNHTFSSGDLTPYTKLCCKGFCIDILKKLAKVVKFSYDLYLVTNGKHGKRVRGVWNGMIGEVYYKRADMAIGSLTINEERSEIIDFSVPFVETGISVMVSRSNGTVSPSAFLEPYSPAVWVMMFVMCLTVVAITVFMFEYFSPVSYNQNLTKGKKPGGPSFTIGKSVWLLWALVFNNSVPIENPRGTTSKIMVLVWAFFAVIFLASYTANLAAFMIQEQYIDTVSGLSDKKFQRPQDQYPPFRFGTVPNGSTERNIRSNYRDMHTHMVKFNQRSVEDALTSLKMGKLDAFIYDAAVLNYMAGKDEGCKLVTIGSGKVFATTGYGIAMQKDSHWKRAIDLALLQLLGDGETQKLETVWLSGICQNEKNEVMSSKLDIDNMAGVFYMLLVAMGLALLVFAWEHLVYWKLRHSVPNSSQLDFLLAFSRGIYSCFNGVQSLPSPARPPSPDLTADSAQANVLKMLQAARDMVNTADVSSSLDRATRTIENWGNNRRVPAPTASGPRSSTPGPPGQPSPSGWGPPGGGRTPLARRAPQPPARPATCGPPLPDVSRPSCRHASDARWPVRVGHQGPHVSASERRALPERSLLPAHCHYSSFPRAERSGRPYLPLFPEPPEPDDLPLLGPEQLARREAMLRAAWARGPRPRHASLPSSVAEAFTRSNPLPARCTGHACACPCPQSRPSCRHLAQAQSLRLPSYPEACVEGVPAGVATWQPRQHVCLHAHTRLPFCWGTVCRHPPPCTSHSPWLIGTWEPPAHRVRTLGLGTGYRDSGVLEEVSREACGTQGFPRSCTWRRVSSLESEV

With `COC(=O)[C@@]1(C)CC[C@H]2[C@@H](CC[C@@H]3C[C@H](OC(=O)CCC(=O)O)CC[C@@]32C)[C@@H]1C`, in test [1], the concentration for half-maximal inhibition (IC50) (usually the point on the concentration scale where inhibition reaches its midpoint) stood at 63.4 µM.

In the case of `COC[C@@]1(C)CC[C@H]2[C@@H](CC[C@@H]3C[C@H](OC(=O)CCC(=O)O)CC[C@@]32C)C1`, the concentration for half-maximal inhibition (IC50) in test [1] came out at 33.3 µM.

For `C[C@@H]1CC[C@H]2[C@@H](CC[C@@H]3C[C@H](OS(=O)(=O)O)CC[C@@]32C)C1.c1ccncc1`, the half-maximal inhibitory concentration (IC50) was 83 µM in test [2]; 11.1 µM in test [3]; 15.6 µM in test [1]; 13.7 µM in test [4]; 8.1 µM in test [5]; 3.1 µM in test [6]. Besides, the 50% inhibitory concentration (IC50) in test [7] was found to be 10.9 µM.

Consider `COC(=O)[C@@]1(C)CC[C@H]2[C@@H](CC[C@@H]3C[C@H](OS(=O)(=O)O)CC[C@@]32C)[C@@H]1C.c1ccncc1`, for which the IC50 in test [1] worked out at 74.6 µM.

`COC[C@@]1(C)CC[C@H]2[C@@H](CC[C@@H]3C[C@H](OC(=O)CCC(=O)O)CC[C@@]32C)[C@@H]1C`: in test [1], the 50% inhibitory concentration (IC50) amounted to 29.2 µM.

On to `COC(=O)[C@@]1(C)CC[C@H]2[C@@H](CC[C@@H]3C[C@H](OC(=O)CCC(=O)O)CC[C@@]32C)C1`, for which the IC50 in test [1] amounted to 87.6 µM.

With `COC[C@@]1(C)CC[C@H]2[C@@H](CC[C@@H]3C[C@H](OS(=O)(=O)O)CC[C@@]32C)C1.c1ccncc1`, in test [1], the half-maximal inhibitory concentration (IC50) is 77 µM.
